“Also recorded” adds a separate entry of the source.
How the values were obtained:
Type in all cases: biochemical
[1] = target: T1, recombinant human MAO-B (Homo sapiens, UniProt P27338); assay: Enzyme kinetics and mechanism studies (Lineweaver-Burk); details: for Type of Inhibition Monoamine Oxidase-B: mechanism / reversibility
T1 construct: purchased BD Biosciences (Bedford, MA, USA)
T1 sequence (P27338 1-520): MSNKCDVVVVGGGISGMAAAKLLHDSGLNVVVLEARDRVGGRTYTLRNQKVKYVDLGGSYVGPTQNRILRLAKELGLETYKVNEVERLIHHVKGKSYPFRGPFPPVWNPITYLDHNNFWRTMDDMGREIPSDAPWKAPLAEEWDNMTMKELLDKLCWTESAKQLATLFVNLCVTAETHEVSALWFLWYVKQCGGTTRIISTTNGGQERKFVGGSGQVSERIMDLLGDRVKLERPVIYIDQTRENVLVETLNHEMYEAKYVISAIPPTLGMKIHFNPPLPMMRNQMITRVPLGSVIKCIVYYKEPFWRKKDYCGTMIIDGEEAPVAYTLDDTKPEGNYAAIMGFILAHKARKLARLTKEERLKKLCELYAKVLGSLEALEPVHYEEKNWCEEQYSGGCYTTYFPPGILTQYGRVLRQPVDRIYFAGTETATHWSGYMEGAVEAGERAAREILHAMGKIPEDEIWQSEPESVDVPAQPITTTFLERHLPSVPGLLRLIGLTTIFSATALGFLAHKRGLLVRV
Method: The assays were run at varying concentrations of the substrate and fixed concentrations of the inhibitor. The Ki (i.e., inhibition/binding affinity) values were computed with double reciprocal Lineweaver–Burk plots.
The controls without inhibitor were also simultaneously run. The results were analyzed by standard double reciprocal Line–Weaver Burk plots for computing Km and Vmax values, which were further analyzed to determine Ki values.

[2] = target: T1, recombinant human MAO-B; assay: Time-dependent assay for enzyme inhibition; details: 0.500 μM; pre-incubation 0–15 min
Method: The control without inhibitors was also run simultaneously. The activity of the enzyme was determined, as described above, and the percentage of enzyme activity remaining was plotted against the pre-incubation time to determine the time-dependence of inhibition.
The controls without inhibitors were also simultaneously run. The activities of the enzymes were determined, as described above, and the percentage of enzyme activity remaining was plotted against the pre-incubation time to determine the time-dependence of inhibition.

[3] = target: T1, recombinant human MAO-B; assay: MAO-B inhibition assay (kynuramine oxidative deamination); details: for SI MAO-A/-B: Selectivity Index = IC50 MAO-A/IC50 MAO-B; for IC50: kynuramine 50 μM, mean ± S.D. of at least triplicate observations
Method: (§1) To investigate the effect of the isolated constituents from T. diffusa on recombinant human MAO-A and MAO-B, the kynuramine oxidative deamination assay was performed in 384-well plates, as previously reported, with minor modifications. A single fixed concentration of kynuramine substrate and varying concentrations of inhibitor were used to test enzyme inhibition and determine the IC50 values. Kynuramine concentrations for MAO-A and MAO-B were 80 μM and 50 μM, respectively. These concentrations of kynuramine were twice the apparent KM value for substrate binding. The concentrations that were tested for pure constituents were from 0.01 to 100 μM, for MAO-A and MAO-B inhibition assays. Reactions were performed in a clear 384-well microplate (50 μL) with 0.1 M potassium phosphate buffer, pH 7.4. The inhibitors and compounds were dissolved in DMSO, diluted in the buffer solution, and pre-incubated at 37 °C for 10 min (no more than 1.0% DMSO final concentration). […] The enzyme product 4-hydroxyquinoline formation was recorded fluorometrically using a SpectraMax M5 fluorescence plate reader (Molecular Devices, Sunnyvale, CA, USA) with an excitation (320 nm) and emission (380 nm) wavelength, using the SoftMaxPro 6.0 program. The inhibition effects of enzyme activity were calculated as a percent of product formation when compared to the corresponding control (enzyme-substrate reaction) without inhibitors. Controls, including samples in which the enzyme or the substrate was added after stopping the reactions, were simultaneously checked to determine the interference of inherent fluorescence of the test compounds with the measurements. IC50 values for MAO-A and MAO-B inhibition were calculated from the concentration dependent inhibition curves using XLfit, a Microsoft Excel-based plug-in which performs Regression, curve fitting and statistical analysis (IDBS, Bridgewater, NJ, USA).
(§2) The dose-response curves were generated using Microsoft® Excel and the IC50 values were analyzed using XLfit software.

[4] = target: T1, recombinant human MAO-B; assay: Reversibility of binding, enzyme-inhibitor complex equilibrium dialysis
Method: The activity of the enzyme was analyzed before and after the dialysis (Figure 4).
The inhibitors bind with the target enzyme through the formation of an enzyme-inhibitor complex. The formation of the enzyme-inhibitor complex may be accelerated in the presence of the high concentration of the inhibitor. […] After 20 min incubation at 37 °C, the reaction was stopped by chilling in an ice bath. All of the samples were dialyzed against potassium phosphate buffer (25 mM; pH 7.4) at 4 °C for 14–18 h (three buffer changes). Control enzyme (without inhibitor) was also run through the same procedure and the activity of the enzyme was determined before and after the dialysis.

[5] = target: T2, recombinant human MAO-A (Homo sapiens, UniProt P21397); assay: MAO-A inhibition assay (kynuramine oxidative deamination); details: kynuramine 80 μM; mean ± S.D. of at least triplicate observations
T2 construct: purchased BD Biosciences (Bedford, MA, USA)
T2 sequence (P21397 1-527): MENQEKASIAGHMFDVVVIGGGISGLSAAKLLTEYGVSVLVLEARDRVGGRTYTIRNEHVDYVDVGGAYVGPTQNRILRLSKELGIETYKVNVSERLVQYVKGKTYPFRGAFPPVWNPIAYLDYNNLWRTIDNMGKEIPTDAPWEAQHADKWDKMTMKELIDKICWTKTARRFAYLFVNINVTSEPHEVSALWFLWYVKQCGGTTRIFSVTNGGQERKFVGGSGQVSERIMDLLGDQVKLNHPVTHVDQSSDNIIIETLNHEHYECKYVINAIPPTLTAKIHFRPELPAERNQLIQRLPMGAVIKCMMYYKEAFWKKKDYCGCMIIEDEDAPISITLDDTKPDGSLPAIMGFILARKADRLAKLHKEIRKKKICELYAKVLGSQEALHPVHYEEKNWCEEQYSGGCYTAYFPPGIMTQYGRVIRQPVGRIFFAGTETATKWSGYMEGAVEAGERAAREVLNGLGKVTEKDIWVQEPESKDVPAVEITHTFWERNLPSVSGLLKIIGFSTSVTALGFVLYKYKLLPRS
Method: as §1, §2

Row | Type of Inhibition Monoamine Oxidase-B [1] | Type of Inhibition Monoamine Oxidase-B ([1]; listed as acacetin 7-methyl ether) | Ki ([1]; varying kynuramine, mean ± S.D. of triplicate experiments, read-out: Ki Monoamine Oxidase-B) [µM] | selectivity for MAO-B over MAO-A [3] [fold] | SI MAO-A/-B [3] | plateau of concentration-dependent inhibition of MAO-B ([3]; higher concentrations, ~20% activity remaining) | IC50 [3] [µM] | inhibition of MAO-B activity after incubation, before dialysis ([4]; 1.0 and 2.0 μM, 20 min incubation) [%] | activity of the enzyme recovered after equilibrium dialysis ([4]; 1.0 and 2.0 μM, dialyzed overnight) | reversibility of binding to MAO-B ([4]; equilibrium dialysis) | IC50 [5] [µM] | Compound | time dependence of binding/inhibition of MAO-B [2]
1 | Competitive/Partially Reversible | reversible competitive inhibitor | 0.045 ± 0.003 | > 500 | >505.051 | ~ 80 % inhibition | 0.198 ± 0.001 | > 60 | ~ 80% | partially reversible | > 100 | COc1ccc(-c2cc(=O)c3c(O)cc(OC)cc3o2)cc1 [Acacetin 7-methyl ether, 5-hydroxy-4′, 7-dimethoxyflavone] | time-independent; also recorded: not dependent on the pre-incubation time
2 | Competitive/Reversible |  |  |  |  |  |  |  |  |  | 0.115 ± 0.004 | COc1ccc(-c2cc(=O)c3c(O)cc(O)cc3o2)cc1 [Acacetin] | 
3 |  |  |  |  | 42.056 |  | 0.447 ± 0.01 |  |  |  | 18.8 ± 0.291 | COc1cc(O)c2c(=O)cc(-c3ccc(O)c(OC)c3)oc2c1 [Vetulin] | 

The next lines start with the compound.

Row | Compound | Type of Inhibition Monoamine Oxidase-B [1] | Type of Inhibition Monoamine Oxidase-B ([1]; listed as acacetin 7-methyl ether) | Ki ([1]; varying kynuramine, mean ± S.D. of triplicate experiments, read-out: Ki Monoamine Oxidase-B) [µM] | selectivity for MAO-B over MAO-A [3] [fold] | SI MAO-A/-B [3] | plateau of concentration-dependent inhibition of MAO-B ([3]; higher concentrations, ~20% activity remaining) | IC50 [3] [µM] | inhibition of MAO-B activity after incubation, before dialysis ([4]; 1.0 and 2.0 μM, 20 min incubation) [%] | activity of the enzyme recovered after equilibrium dialysis ([4]; 1.0 and 2.0 μM, dialyzed overnight) | reversibility of binding to MAO-B ([4]; equilibrium dialysis) | IC50 [5] [µM] | time dependence of binding/inhibition of MAO-B [2]
4 | O=C(/C=C/c1ccc(O)cc1)OC[C@H]1O[C@@H](Oc2cc(O)c3c(=O)cc(-c4ccc(O)cc4)oc3c2)[C@H](O)[C@@H](O)[C@@H]1O [Apigenin-7-O-β-D-(6-O-p-coumaroyl) glucoside] |  |  |  |  | 1.023 |  | 22 ± 1.76 |  |  |  | 22.5 ± 4.44 | 
5 | C[C@@H]1O[C@@H](O[C@@H]2[C@@H](O)[C@H](O)[C@@H](CO)O[C@H]2c2c(O)cc(O)c3c(=O)cc(-c4ccc(O)cc4)oc23)[C@H](O)[C@H](O)[C@H]1O [Rhamnosylvitexin] |  |  |  |  | 1.557 |  | 26.3 ± 0.277 |  |  |  | 40.9 ± 6.81 | 
6 | COc1cc(-c2cc(=O)c3c(O)cc(O[C@@H]4O[C@H](CO)[C@@H](O)[C@H](O)[C@H]4O)cc3o2)cc(OC)c1O [Tricin-7-glucoside] |  |  |  |  | 1.854 |  | 27.4 ± 0.819 |  |  |  | 50.9 ± 0.506 | 

Reference: paper PMC6412401 (Molecules, 2019)
